Experiment [1] concerns the target T1, MEK1 (Homo sapiens, UniProt Q02750).
T1 construct: purchased Reaction Biology Europe GmbH
The experiment can be described thus: PanQinase kinase panel: MEK1. In kind it is biochemical. Conditions: read-out: INHIBITORY EFFECT @ 1 uM: MEK1. The method, then: (§1) Screening procedures were performed in accordance with the company's on-line protocol [accessed on-line Mar.
(§2) For each kinase, the median value of the cpm of three wells was defined as “low control” (n=3). This value reflects unspecific binding of radioactivity to the plate in the absence of a protein kinase but in the presence of the substrate. Additionally, for each kinase the median value of the cpm of three other wells was taken as the “high control,” i.e. full activity in the absence of any inhibitor (n=3). The difference between high and low control of each enzyme was taken as 100% activity.
(§3) As part of the data evaluation the low control of each kinase was subtracted from the high control value as well as from their corresponding “compound values”. The residual activity (in %) for each compound well was calculated by using the following formula: Res. Activity (%)=100×[(signal of compound−low control)/(high control−low control)].

Experiment [2] addresses BTK (Homo sapiens, UniProt Q06187). In words: PanQinase kinase panel: BTK. In kind it is biochemical. Set-up: purchased Reaction Biology Europe GmbH. The method, then: as §1, §2
(§4) As part of the data evaluation the low control of each kinase was subtracted from the high control value as well as from their corresponding “compound values”.

In experiment [3] the target is T2, TRKB (Homo sapiens, UniProt Q16620).
T2 construct: purchased Reaction Biology Europe GmbH
T2 sequence (Q16620 32-822): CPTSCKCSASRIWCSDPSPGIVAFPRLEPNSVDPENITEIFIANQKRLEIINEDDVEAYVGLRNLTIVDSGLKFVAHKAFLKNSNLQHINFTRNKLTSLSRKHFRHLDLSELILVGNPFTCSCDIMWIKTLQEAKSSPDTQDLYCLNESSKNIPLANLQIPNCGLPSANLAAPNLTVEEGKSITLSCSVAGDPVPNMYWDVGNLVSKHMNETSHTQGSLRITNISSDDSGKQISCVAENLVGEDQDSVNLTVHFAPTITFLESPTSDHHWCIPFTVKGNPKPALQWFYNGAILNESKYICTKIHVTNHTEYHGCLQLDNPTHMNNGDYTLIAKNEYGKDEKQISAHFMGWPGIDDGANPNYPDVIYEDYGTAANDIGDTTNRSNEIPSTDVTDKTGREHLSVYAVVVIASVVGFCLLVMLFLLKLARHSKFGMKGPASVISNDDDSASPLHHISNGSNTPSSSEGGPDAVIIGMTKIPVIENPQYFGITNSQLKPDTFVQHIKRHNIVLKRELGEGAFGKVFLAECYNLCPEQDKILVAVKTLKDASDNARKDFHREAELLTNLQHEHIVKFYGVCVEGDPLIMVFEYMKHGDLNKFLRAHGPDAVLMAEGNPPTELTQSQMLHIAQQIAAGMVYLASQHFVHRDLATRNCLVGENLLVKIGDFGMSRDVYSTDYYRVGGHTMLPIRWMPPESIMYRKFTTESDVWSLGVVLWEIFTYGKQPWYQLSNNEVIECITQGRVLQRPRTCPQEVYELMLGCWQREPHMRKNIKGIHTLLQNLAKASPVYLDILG
The experiment can be described thus: PanQinase kinase panel: TRKB. The class given is biochemical. Conditions: read-out: INHIBITORY EFFECT @ 1 uM: TRKB. The method, then: as §1, §2, §3

Experiment [4] deals with T3, FGFR3 (Homo sapiens, UniProt P22607).
T3 construct: purchased Reaction Biology Europe GmbH
T3 sequence (P22607 23-806): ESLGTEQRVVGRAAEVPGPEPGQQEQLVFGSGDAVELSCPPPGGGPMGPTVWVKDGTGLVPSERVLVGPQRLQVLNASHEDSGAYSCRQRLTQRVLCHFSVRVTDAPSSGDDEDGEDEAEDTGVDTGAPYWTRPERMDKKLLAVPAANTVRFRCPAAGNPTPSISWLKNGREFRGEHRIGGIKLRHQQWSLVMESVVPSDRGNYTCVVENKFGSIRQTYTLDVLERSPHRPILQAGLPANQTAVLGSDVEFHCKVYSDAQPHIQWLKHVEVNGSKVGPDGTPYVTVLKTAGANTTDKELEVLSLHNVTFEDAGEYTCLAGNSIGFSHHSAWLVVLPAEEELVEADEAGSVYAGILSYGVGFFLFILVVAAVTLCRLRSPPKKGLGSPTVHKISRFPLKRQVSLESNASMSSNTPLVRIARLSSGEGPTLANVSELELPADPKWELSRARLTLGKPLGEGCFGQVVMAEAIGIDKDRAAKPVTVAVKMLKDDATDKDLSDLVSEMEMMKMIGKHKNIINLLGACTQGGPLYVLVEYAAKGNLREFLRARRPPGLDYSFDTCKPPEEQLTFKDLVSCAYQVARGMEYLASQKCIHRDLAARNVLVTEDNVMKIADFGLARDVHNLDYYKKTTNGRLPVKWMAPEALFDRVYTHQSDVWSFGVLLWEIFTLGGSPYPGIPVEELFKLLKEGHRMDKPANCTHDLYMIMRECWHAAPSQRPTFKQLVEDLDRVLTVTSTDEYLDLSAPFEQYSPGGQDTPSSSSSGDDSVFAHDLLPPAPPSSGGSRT
In words: PanQinase kinase panel: FGFR3. The class given is biochemical. Particulars: read-out: INHIBITORY EFFECT @ 1 uM: FGFR3. The method, then: as §1, §2, §3

For experiment [5], the target named is T4, PAK3 (Homo sapiens, UniProt O75914).
T4 construct: purchased Reaction Biology Europe GmbH
The experiment can be described thus: PanQinase kinase panel: PAK3. In kind it is biochemical. Conditions: read-out: INHIBITORY EFFECT @ 1 uM: PAK3. The method, then:
as §1, §2, §3

Experiment [6] has as its target T5, p38beta (Homo sapiens, UniProt Q15759).
T5 construct: purchased Reaction Biology Europe GmbH
In words: PanQinase kinase panel: p38beta. The class given is biochemical. Conditions: read-out: INHIBITORY EFFECT @ 1 uM: p38beta. The method, then:
as §1, §2, §3

Experiment [7] addresses T6, BRK (Homo sapiens, UniProt Q13882).
T6 construct: purchased Reaction Biology Europe GmbH
In words: PanQinase kinase panel: BRK. The class given is biochemical. Particulars: read-out: INHIBITORY EFFECT @ 1 uM: BRK. On the procedure: as §1, §2, §4

Experiment [8] has as its target T7, CLK2 (Homo sapiens, UniProt P49760).
T7 construct: purchased Reaction Biology Europe GmbH
In words: PanQinase kinase panel: CLK2. In kind it is biochemical. The method, then: as §1, §2, §3

Experiment [9] concerns the target CXCR4 (Homo sapiens, UniProt P61073). The experiment can be described thus: Intracellular CXCL-12-induced calcium mobilization assay (FLIPR), U87.CXCR4 cells. The class given is cell-based. Also noted: expressed in transfected cells; host or cells: U87 (U87.CXCR4). Particulars: CXCL-12 25-50 ng/ml, read-out: IC50 CXCL-12 Ca2+ flux U87.CXCR4+. The procedure, abridged: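 U87 cells transfected with CXCR4 were loaded with 4 μM Fluo-2 AM for 45 min at 37° C in HBSS with 20 mM HEPES and 0.2% BSA, pH 7.4. Calcium mobilization induced by CXCL-12 (25-50 ng/ml) was followed over time by FLIPR fluorescence at 37° C.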

The target of experiment [10] is T8, LIMK1 (Homo sapiens, UniProt P53667).
T8 construct: purchased Reaction Biology Europe GmbH
T8 sequence (P53667 whole entry): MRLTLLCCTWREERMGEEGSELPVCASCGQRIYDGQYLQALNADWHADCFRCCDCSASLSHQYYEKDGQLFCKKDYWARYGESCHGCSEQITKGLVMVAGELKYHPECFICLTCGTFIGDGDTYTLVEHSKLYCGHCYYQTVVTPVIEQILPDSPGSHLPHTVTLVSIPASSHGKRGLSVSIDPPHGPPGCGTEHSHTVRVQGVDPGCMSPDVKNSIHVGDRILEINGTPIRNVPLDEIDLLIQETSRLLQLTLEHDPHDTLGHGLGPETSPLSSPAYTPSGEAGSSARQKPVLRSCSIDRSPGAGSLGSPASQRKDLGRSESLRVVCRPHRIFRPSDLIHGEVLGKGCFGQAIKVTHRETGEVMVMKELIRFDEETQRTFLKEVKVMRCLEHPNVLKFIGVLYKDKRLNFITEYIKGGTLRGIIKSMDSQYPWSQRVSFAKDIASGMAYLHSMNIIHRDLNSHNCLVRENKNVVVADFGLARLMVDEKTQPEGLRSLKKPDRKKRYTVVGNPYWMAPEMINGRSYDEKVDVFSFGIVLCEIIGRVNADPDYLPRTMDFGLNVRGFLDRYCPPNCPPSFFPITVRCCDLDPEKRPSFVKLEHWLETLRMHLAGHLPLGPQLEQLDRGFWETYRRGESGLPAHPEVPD
The experiment can be described thus: PanQinase kinase panel: LIMK1. The class given is biochemical. On the procedure:
as §1, §2, §3

The test system of experiment [11] is T98G. In words: Glioblastoma multiforme cell proliferation assay (CellTiter Glo), T98G. In kind it is cell-based. Conditions: Homo sapiens; for Emax: read-out: GBM-T-98G Cell Proliferation Emax %. On the procedure: Inhibition of glioblastoma multiforme cell proliferation by compounds of the present invention was evaluated in U-87 MG (ATCC; Cat. No. HTB-14; Lot. No. 5018014) and T98G (ATCC; Cat. No. CRL-1690; Lot. No. 58267513) cell lines. These are adherent cell lines isolated from glioblastoma multiforme/malignant glioma, which express both CXCR4 and BTK (see Zhou et al. 2002 and Yue et al. 2017).
Cell viability was analyzed with the CellTiter Glo Cell assay kit ([…], Cat. No. G7573, Lot. No. 0000474103), according to the manufacturer's instruction.
U-87 MG and T98G cells were seeded onto 384-well opaque-walled clear bottom plates (Corning, Cat. No. 3765, Lot. No. 34319047) in EMEM (Invitrogen, Cat. No. 11095-080; Lot. No. 2276656) supplemented with 10% FBS (Invitrogen, Cat. No. 10099-141C, Lot. No. 2145169CP), at a seeding density of 1000 or 1200 cells per well, respectively, and then incubated in 5% CO2 at 37° C. overnight.
Compounds were prepared as stock solutions of 30 mM in DMSO (Sigma, Cat. No. 276855-1L. Lot. No. SHBL5610). Compounds were added to the cells, with 10 dose points in duplicates, in 3-fold dilution from a top concentration of 30 μM (final DMSO concentration […]), and incubated in 5% CO2 at 37° C. for 96 hr.
The 384-well plates were equilibrated at room temperature for approximately 30 min. 25 μl of CellTiter-Glo® Reagent was added to each well and mixed for 10 min on an orbital shaker to induce cell lysis. The 384-well plates were incubated at room temperature for 10 min to stabilize luminescent signal. Luminescence was detected on a PerkinElmer EnVision Multimode Plate Reader (measurement time 0.1s) as relative luminescence units (RLU).
(Cellular ATP, detected with luciferase, serves as a proxy for viable cell number.)

[12] abbreviates: read-out: INHIBITORY EFFECT @ 1 uM: BTK.
The mark [13] stands for this setting: read-out: INHIBITORY EFFECT @ 1 uM: CLK2.
The mark [14] stands for this setting: read-out: INHIBITORY EFFECT @ 1 uM: LIMK1.
[15] abbreviates: Table 6A, cell viability, 96 hr, read-out: T98G IC50.

Results on seven compounds are retold here after patent US20250326753A1, “DUAL CXCR4-BTK INHIBITORS” (X4 Pharmaceuticals, Inc., priority 2022, published 2025).

pIC50: −log10 of the molar value. Where two headings read alike, the source gives them in different places.

T7 sequence (P49760 whole entry): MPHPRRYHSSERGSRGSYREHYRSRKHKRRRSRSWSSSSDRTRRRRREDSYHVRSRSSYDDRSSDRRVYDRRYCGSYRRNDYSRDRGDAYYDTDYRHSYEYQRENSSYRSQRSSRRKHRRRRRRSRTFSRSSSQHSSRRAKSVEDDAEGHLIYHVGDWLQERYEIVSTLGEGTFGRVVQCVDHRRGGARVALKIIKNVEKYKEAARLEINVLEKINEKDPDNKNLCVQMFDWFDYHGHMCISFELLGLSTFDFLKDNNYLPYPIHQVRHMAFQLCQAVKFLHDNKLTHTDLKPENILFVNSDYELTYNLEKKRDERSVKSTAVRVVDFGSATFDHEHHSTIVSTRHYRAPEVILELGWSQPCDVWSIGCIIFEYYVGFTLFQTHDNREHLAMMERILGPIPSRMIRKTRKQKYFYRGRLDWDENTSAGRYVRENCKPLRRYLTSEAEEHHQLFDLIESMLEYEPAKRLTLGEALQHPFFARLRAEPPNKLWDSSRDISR
T5 sequence (Q15759 whole entry): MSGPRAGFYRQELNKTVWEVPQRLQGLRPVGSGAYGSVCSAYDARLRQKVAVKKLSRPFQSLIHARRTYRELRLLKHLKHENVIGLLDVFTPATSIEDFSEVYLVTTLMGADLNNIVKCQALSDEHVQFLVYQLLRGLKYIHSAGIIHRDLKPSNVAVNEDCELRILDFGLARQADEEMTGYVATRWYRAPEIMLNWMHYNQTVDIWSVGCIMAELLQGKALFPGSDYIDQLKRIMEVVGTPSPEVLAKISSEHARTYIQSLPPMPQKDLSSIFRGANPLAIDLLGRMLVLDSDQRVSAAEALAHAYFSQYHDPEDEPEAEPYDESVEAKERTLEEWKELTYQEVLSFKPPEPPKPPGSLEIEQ
T1 sequence (Q02750 whole entry): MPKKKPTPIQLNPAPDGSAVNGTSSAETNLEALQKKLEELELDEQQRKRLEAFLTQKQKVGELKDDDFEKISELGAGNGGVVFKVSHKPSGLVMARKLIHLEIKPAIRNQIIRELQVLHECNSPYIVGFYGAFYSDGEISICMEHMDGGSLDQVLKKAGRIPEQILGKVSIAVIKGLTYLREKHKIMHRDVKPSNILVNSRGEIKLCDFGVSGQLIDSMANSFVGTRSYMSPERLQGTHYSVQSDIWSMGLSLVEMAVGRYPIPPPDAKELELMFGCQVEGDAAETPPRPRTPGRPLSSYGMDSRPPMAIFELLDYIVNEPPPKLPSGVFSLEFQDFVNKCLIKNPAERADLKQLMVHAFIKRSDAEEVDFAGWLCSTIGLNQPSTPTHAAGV
BTK, sequence (Q06187 whole entry): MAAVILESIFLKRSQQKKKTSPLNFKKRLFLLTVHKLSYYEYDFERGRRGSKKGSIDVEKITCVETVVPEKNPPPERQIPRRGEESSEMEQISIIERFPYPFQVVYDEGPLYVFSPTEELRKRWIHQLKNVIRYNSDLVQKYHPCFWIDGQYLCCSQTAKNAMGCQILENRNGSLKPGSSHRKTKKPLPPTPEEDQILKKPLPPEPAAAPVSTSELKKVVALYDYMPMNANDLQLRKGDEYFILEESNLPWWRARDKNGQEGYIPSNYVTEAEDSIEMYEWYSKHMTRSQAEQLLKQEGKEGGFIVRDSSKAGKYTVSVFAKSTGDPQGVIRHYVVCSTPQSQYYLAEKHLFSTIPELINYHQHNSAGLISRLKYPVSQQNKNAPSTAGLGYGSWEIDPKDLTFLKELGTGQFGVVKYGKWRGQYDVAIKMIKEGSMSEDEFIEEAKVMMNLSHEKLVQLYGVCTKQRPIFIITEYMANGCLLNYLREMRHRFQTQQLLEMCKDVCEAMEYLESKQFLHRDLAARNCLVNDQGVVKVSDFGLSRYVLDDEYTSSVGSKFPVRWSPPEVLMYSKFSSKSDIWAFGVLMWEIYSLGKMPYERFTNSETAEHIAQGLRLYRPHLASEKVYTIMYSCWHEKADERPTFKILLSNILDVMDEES
T6 sequence (Q13882 whole entry): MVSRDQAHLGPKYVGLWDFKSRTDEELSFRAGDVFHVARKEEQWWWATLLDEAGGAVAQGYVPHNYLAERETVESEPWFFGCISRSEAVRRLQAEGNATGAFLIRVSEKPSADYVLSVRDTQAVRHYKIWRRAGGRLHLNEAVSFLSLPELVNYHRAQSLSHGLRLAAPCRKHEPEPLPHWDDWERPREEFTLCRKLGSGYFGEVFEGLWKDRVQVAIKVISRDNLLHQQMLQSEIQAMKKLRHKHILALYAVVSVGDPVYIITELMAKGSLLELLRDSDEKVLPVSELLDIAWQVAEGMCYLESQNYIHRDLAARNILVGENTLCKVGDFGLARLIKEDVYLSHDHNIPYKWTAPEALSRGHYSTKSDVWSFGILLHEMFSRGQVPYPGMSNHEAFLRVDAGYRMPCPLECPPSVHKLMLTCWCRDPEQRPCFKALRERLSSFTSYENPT
CXCR4, sequence (P61073 whole entry): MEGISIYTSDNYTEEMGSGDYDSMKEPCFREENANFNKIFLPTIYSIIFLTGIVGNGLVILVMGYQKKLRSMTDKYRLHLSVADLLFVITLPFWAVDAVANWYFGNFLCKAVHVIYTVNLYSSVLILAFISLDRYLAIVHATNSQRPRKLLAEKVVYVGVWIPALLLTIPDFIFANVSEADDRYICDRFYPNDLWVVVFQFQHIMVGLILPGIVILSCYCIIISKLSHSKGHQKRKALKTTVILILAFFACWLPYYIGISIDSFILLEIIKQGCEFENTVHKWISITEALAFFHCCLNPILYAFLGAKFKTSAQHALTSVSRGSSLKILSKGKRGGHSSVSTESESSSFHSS

For `O=C(c1ccc(Oc2ccccc2)cc1Cl)c1c[nH]c2ncnc(N[C@@H]3CC[C@@H](CO)OC3)c12` [ARQ-531, (2-chloro-4-phenoxyphenyl) (4-(((3R,6S)-6-(hydroxymethyl)tetrahydro-2H-pyran-3-yl)amino)-7H-pyrrolo[2,3-d]pyrimidin-5-yl) methanone], the inhibition at 1 µM in experiment [1] was 50 to 69%; in experiment [2] (setting [12]), 90 to 100%; in experiment [3], less than 50%; in experiment [4] it was 50 to 69%; in experiment [5] it was 90 to 100%; in experiment [6], 70 to 89%.

As for `Cc1cccnc1[C@H]1CCC[C@@H](c2ncccc2C)N1CCN1CCN(C(=O)c2ccc(-c3cc4c(-c5cccc(NC(=O)c6ccccc6)c5C)ncnc4[nH]3)cc2)CC1` [Compound I-10, N-(3-(6-(4-(4-(2-((2R,6S)-2,6-bis(3-methylpyridin-2-yl)piperidin-1-yl)ethyl)piperazine-1-carbonyl)phenyl)-7H-pyrrolo[2,3-d]pyrimidin-4-yl)-2-methylphenyl)benzamide], the inhibition at 1 µM was less than 50% in experiment [7]; less than 50% in experiment [1]; 50 to 89% in experiment [8] (at 1 μM, read-out: inhibition of CLK2); 50 to 69% in [8] (setting [13]); not below 90% in experiment [2] (1 μM, read-out: inhibitor effect on BTK); 90 to 100% in experiment [2] (setting [12]). The inhibition at 1 µM in [3] was less than 50%; in experiment [10] (at 1 μM, read-out: inhibition of LIMK1), 50 to 89%; in experiment [10] (setting [14]), 70 to 89%; in experiment [4], less than 50%; in experiment [5], less than 50%; in experiment [6], less than 50%. Besides, the pIC50 in [9] is 7.00 to 9.00. Moreover, the Emax in experiment [11] (Table 6B) amounted to 93%. For the same compound, in experiment [11] (read-out: GBM-T-98G Cell Proliferation IC50 uM), the IC50 was determined as 2.66 µM.

For `Cc1cc(-c2ccnc(Nc3cnn(CCN4[C@@H](c5ncccc5C)CCC[C@H]4c4ncccc4C)c3)n2)ccc1CNC(=O)N1CC(OC(C)C)C1` [Compound I-11], the pIC50 is 6.00 to 7.00 in [9] and 5.48 in experiment [11] (Table 6B, read-out: GBM-T-98G Cell Proliferation IC50). For the same compound, the Emax in experiment [11] (Table 6B) is 98%.

For `Cc1cccnc1[C@H]1CCC[C@@H](c2ncccc2C)N1CCCCNC(=O)[C@@H]1CC[C@@H](Nc2ncnc3[nH]cc(C(=O)c4ccc(Oc5ccccc5)cc4Cl)c23)CO1` [Compound I-16], the pIC50 in [9] is 6.00 to 7.00; in experiment [11] (setting [15]), 5.66.

Take `Cc1cccnc1[C@H]1CCC[C@@H](c2ncccc2C)N1CCCCNC(=O)OC[C@@H]1CC[C@@H](Nc2ncnc3[nH]cc(C(=O)c4ccc(Oc5ccccc5)cc4Cl)c23)CO1` [Compound I-18]: the figures for the pIC50 in [9] and in [11] (setting [15]) were less than 5.60 and 5.62, respectively.

On to `COc1ccc(F)cc1C(=O)NCc1ccc(-c2nn([C@@H](C)C(F)(F)F)c(N)c2C(N)=O)cc1` [LOXO-305, pirtobrutinib], for which the inhibition at 1 µM in experiment [7] was 70 to 89%; in experiment [1] it was less than 50%; in experiment [8] (setting [13]), less than 50%; in experiment [2] (setting [12]) it was 90 to 100%; in experiment [3] it was 50 to 69%; in experiment [10] (setting [14]) it was less than 50%. For the same compound, the inhibition at 1 µM in [4], in [5] and in experiment [6] was less than 50% each time.

On to `C=CC(=O)N1CCC([C@@H]2CCNc3c(C(N)=O)c(-c4ccc(Oc5ccccc5)cc4)nn32)CC1` [Zanubrutinib, (7S)-2-(4-phenoxyphenyl)-7-(1-prop-2-enoylpiperidin-4-yl)-4,5,6,7-tetrahydropyrazolo[1,5-a]pyrimidine-3-carboxamide], for which the inhibition at 1 µM in experiment [7] was 90 to 100%; in experiment [1], less than 50%; in [8] (setting [13]) it was less than 50%; in [3] it was less than 50%; in experiment [10] (setting [14]) it was less than 50%; in experiment [4] it was less than 50%. Also, the inhibition at 1 µM in experiment [5] and in experiment [6] was less than 50% in each case.
